Article PMC9743148 (Annals of oncology : official journal of the European …, 2020)

Test system: patients with advanced solid tumors
Test: Treatment-emergent adverse events
Format: in vivo, human
[1] = Combined t.i.w. cohorts (n = 42)

C=CC(=O)N1CC[C@H](n2nc(C#Cc3cc(OC)cc(OC)c3)c3c(N)ncnc32)C1 [futibatinib]
10 (24) n (%): Any treatment-related AE, Grade 3 [1] | Constipation TEAE, Grade 1 [1]
0 (0) n (%): AST increased TEAE, Grade 3 [1] | AST increased TEAE, Grade 4 [1] | Abdominal pain TEAE, Grade 4 [1] | Alopecia TEAE, Grade 2 [1] | Alopecia TEAE, Grade 3 [1] | Alopecia TEAE, Grade 4 [1] | Anemia TEAE, Grade 4 [1] | Asthenia TEAE, Grade 3 [1] | Asthenia TEAE, Grade 4 [1] | Back pain TEAE, Grade 3 [1] | Back pain TEAE, Grade 4 [1] | Constipation TEAE, Grade 3 [1] | Constipation TEAE, Grade 4 [1] | Cough TEAE, Grade 2 [1] | Cough TEAE, Grade 3 [1] | Cough TEAE, Grade 4 [1] | Decreased appetite TEAE, Grade 4 [1] | Diarrhea TEAE, Grade 3 [1] | Diarrhea TEAE, Grade 4 [1] | Dose reduction because of TEAE, Grade 1 [1] | Dose reduction because of TEAE, Grade 4 [1] | Dosing delay/interruption because of TEAE, Grade 1 [1] | Dry eye TEAE, Grade 2 [1] | Dry eye TEAE, Grade 3 [1] | Dry eye TEAE, Grade 4 [1] | Dry mouth TEAE, Grade 3 [1] | Dry mouth TEAE, Grade 4 [1] | Dry skin TEAE, Grade 3 [1] | Dry skin TEAE, Grade 4 [1] | Fatigue TEAE, Grade 3 [1] | Fatigue TEAE, Grade 4 [1] | Headache TEAE, Grade 3 [1] | Headache TEAE, Grade 4 [1] | Hypercalcemia TEAE, Grade 4 [1] | Hyperphosphatemia TEAE, Grade 4 [1] | Hypomagnesemia TEAE, Grade 3 [1] | Hypomagnesemia TEAE, Grade 4 [1] | Hyponatremia TEAE, Grade 2 [1] | Hyponatremia TEAE, Grade 4 [1] | Nausea TEAE, Grade 2 [1] | Nausea TEAE, Grade 4 [1] | Onycholysis TEAE, Grade 3 [1] | Onycholysis TEAE, Grade 4 [1] | Pyrexia TEAE, Grade 2 [1] | Pyrexia TEAE, Grade 4 [1] | Rash TEAE, Grade 2 [1] | Rash TEAE, Grade 3 [1] | Rash TEAE, Grade 4 [1] | Stomatitis TEAE, Grade 4 [1] | Treatment discontinuation because of TEAE, Grade 1 [1] | Treatment discontinuation because of TEAE, Grade 2 [1] | Treatment discontinuation because of TEAE, Grade 4 [1] | Urinary tract infection TEAE, Grade 1 [1] | Urinary tract infection TEAE, Grade 4 [1] | Vomiting TEAE, Grade 4 [1]
> 50%: Patients with grade ≥3 TEAEs (overall population)
12 (29) n (%): Any treatment-related AE, Grade 1 [1] | Diarrhea TEAE, Grade 1 [1] | Nausea TEAE, Any grade [1]
9 (21) n (%): Asthenia TEAE, Any grade [1] | Decreased appetite TEAE, Any grade [1] | Vomiting TEAE, Any grade [1]
37 (88) n (%): Any treatment-related AE, Any grade [1]
20 (48) n (%): Any TEAE, Grade 3 [1]
3 (7) n (%): AST increased TEAE, Grade 2 [1] | Anemia TEAE, Grade 3 [1] | Any TEAE, Grade 1 [1] | Back pain TEAE, Any grade [1] | Decreased appetite TEAE, Grade 2 [1] | Dose reduction because of TEAE, Grade 2 [1] | Hypercalcemia TEAE, Grade 3 [1] | Hyperphosphatemia TEAE, grade 3 [1] | Vomiting TEAE, Grade 2 [1]
3%: TEAEs leading to treatment discontinuations (overall population (n = 86))
17 (40) n (%): Diarrhea TEAE, Any grade [1]
50%: Hyperphosphatemia TEAE, any grade (combined t.i.w. cohorts, 21 of 42 patients)
2 (5) n (%): Abdominal pain TEAE, Grade 2 [1] | Abdominal pain TEAE, Grade 3 [1] | Anemia TEAE, Grade 1 [1] | Any TEAE, Grade 4 [1] | Back pain TEAE, Grade 1 [1] | Cough TEAE, Any grade [1] | Cough TEAE, Grade 1 [1] | Dry eye TEAE, Any grade [1] | Dry eye TEAE, Grade 1 [1] | Fatigue TEAE, Grade 1 [1] | Stomatitis TEAE, Grade 1 [1] | Stomatitis TEAE, Grade 3 [1]
42 (100) n (%): Any TEAE, Any grade [1]
7%: Hyperphosphatemia TEAE, grade 3 (combined t.i.w. cohorts) | Grade 3 hyponatremia TEAE (overall population (n = 86))
7 (17) n (%): Dry skin TEAE, Any grade [1] | Fatigue TEAE, Any grade [1] | Headache TEAE, Any grade [1] | Hyperphosphatemia TEAE, Grade 1 [1]
48%: Patients with grade 3 TEAEs (overall population (n = 86))
16%: Hyperphosphatemia TEAE, grade 3 (combined q.d. cohorts)
30%: Patients with treatment-related grade 3 AEs (overall population (n = 86))
5 (12) n (%): Asthenia TEAE, Grade 1 [1] | Decreased appetite TEAE, Grade 1 [1] | Diarrhea TEAE, Grade 2 [1] | Fatigue TEAE, Grade 2 [1] | Hypercalcemia TEAE, Any grade [1] | Hypomagnesemia TEAE, Any grade [1] | Hyponatremia TEAE, Any grade [1] | Onycholysis TEAE, Any grade [1] | Pyrexia TEAE, Any grade [1] | Rash TEAE, Any grade [1] | Rash TEAE, Grade 1 [1] | Stomatitis TEAE, Any grade [1] | Urinary tract infection TEAE, Any grade [1] | Vomiting TEAE, Grade 1 [1]
6%: Hyperphosphatemia leading to dose reductions (overall population (n = 86)) | Patients with grade 4 TEAEs (overall population (n = 86))
68%: Hyperphosphatemia TEAE, any grade (combined q.d. cohorts, 30 of 44 patients)
No treatment-related deaths: Treatment-related deaths (overall population (n = 86))
13 (31) n (%): Anemia TEAE, Any grade [1] | Dry mouth TEAE, Grade 1 [1]
1 (2) n (%): AST increased TEAE, Grade 1 [1] | Any treatment-related AE, Grade 4 [1] | Back pain TEAE, Grade 2 [1] | Constipation TEAE, Grade 2 [1] | Decreased appetite TEAE, Grade 3 [1] | Dose reduction because of TEAE, Grade 3 [1] | Dosing delay/interruption because of TEAE, Grade 4 [1] | Dry mouth TEAE, Grade 2 [1] | Dry skin TEAE, Grade 2 [1] | Headache TEAE, Grade 2 [1] | Hypercalcemia TEAE, Grade 1 [1] | Hypercalcemia TEAE, Grade 2 [1] | Hypomagnesemia TEAE, Grade 2 [1] | Hyponatremia TEAE, Grade 1 [1] | Nausea TEAE, Grade 3 [1] | Onycholysis TEAE, Grade 2 [1] | Pyrexia TEAE, Grade 3 [1] | Stomatitis TEAE, Grade 2 [1] | Treatment discontinuation because of TEAE, Any grade [1] | Treatment discontinuation because of TEAE, Grade 3 [1] | Urinary tract infection TEAE, Grade 3 [1] | Vomiting TEAE, Grade 3 [1]
8 (19) n (%): Abdominal pain TEAE, Any grade [1] | Anemia TEAE, Grade 2 [1]
11 (26) n (%): Constipation TEAE, Any grade [1] | Hyperphosphatemia TEAE, Grade 2 [1] | Nausea TEAE, Grade 1 [1]
4 (10) n (%): Abdominal pain TEAE, Grade 1 [1] | Alopecia TEAE, Any grade [1] | Alopecia TEAE, Grade 1 [1] | Asthenia TEAE, Grade 2 [1] | Dose reduction because of TEAE, Any grade [1] | Hypomagnesemia TEAE, Grade 1 [1] | Hyponatremia TEAE, Grade 3 [1] | Onycholysis TEAE, Grade 1 [1] | Pyrexia TEAE, Grade 1 [1] | Urinary tract infection TEAE, Grade 2 [1]
14 (33) n (%): Any TEAE, Grade 2 [1] | Any treatment-related AE, Grade 2 [1] | Dosing delay/interruption because of TEAE, Grade 3 [1] | Dry mouth TEAE, Any grade [1]
17%: Hyperphosphatemia leading to dosing interruptions (overall population (n = 86))
21 (50) n (%): Dosing delay/interruption because of TEAE, Any grade [1] | Hyperphosphatemia TEAE, Any grade [1]
6 (14) n (%): Dosing delay/interruption because of TEAE, Grade 2 [1] | Dry skin TEAE, Grade 1 [1] | Headache TEAE, Grade 1 [1]
